Source: US9469650B2, “Melampomagnolide B derivatives” (BOARD OF TRUSTEES OF THE UNIVERSITY OF ARKANSAS, priority 2013, dated 2016)
Read-outs that look alike come from different tables or passages of the source.

Assays:
[1] = system: SK-MEL-2; experiment: panel of 60 human tumor cell lines, growth inhibition (Melanoma); settings: SK-MEL-2
[2] = system: UACC-62; experiment: as above; settings: UACC-62
[3] = system: NCI-H23; experiment: panel of 60 human tumor cell lines, growth inhibition (Non-Small Cell Lung Cancer); settings: NCI-H23
[4] = system: HL-60(TB)
[5] = system: A498; experiment: panel of 60 human tumor cell lines, growth inhibition (Renal Cancer); settings: A498
[6] = system: MDA-MB-468; experiment: panel of 60 human tumor cell lines, growth inhibition (Breast Cancer); settings: MDA-MB-468
[7] = system: PC-3; experiment: panel of 60 human tumor cell lines, growth inhibition (Prostate Cancer); settings: PC-3
[8] = system: SF-539; experiment: panel of 60 human tumor cell lines, growth inhibition (CNS Cancer); settings: SF-539
[9] = system: IGROV1; experiment: panel of 60 human tumor cell lines, growth inhibition (Ovarian Cancer); settings: IGROVI
[10] = system: NCI/ADR-RES; experiment: as above
[11] = system: SNB-19; experiment: panel of 60 human tumor cell lines, growth inhibition (CNS Cancer); settings: SNB-19
[12] = system: CAKI-1; experiment: panel of 60 human tumor cell lines, growth inhibition (Renal Cancer); settings: CAKI-1
[13] = system: KM12; experiment: panel of 60 human tumor cell lines, growth inhibition (Colon Cancer); settings: KM12
[14] = system: SK-MEL-28; experiment: panel of 60 human tumor cell lines, growth inhibition (Melanoma); settings: SK-MEL-28
[15] = system: MOLT-4; experiment: panel of 60 human tumor cell lines, growth inhibition (Leukemia); settings: MOLT-4
[16] = system: COLO 205; experiment: panel of 60 human tumor cell lines, growth inhibition (Colon Cancer); settings: COLO 205
[17] = system: RXF 393; experiment: panel of 60 human tumor cell lines, growth inhibition (Renal Cancer); settings: RXF 393
[18] = system: HOP-92; experiment: panel of 60 human tumor cell lines, growth inhibition (Non-Small Cell Lung Cancer); settings: HOP-92
[19] = system: DU-145; experiment: panel of 60 human tumor cell lines, growth inhibition (Prostate Cancer); settings: DU-145

For C=C1C(=O)O[C@H]2[C@H]1CC/C(COC(=O)CCC(=O)N1CCC(C)CC1)=C\CC[C@@]1(C)O[C@@H]21 [JVM 2-70], the “Percent Growth” value ([1]; Log10 Concentration −4.0) was −82%, the “Percent Growth” value ([1]; Log10 Concentration −5.0) was 68% and the “Percent Growth” value ([1]; Log10 Concentration −6.0) was 108%. The “Percent Growth” value ([1]; Log10 Concentration −7.0) was 112%, the “Percent Growth” value ([1]; Log10 Concentration −8.0) was 106% and the GI50 ([1]; NCI five dose) was 13.1 µM. For the same molecule, the TGI ([1]; NCI five dose) was 2.83E−5, the “Percent Growth” value ([2]; Log10 Concentration −4.0) was −87% and the “Percent Growth” value ([2]; Log10 Concentration −5.0) was 33%. For the same molecule, the “Percent Growth” value ([2]; Log10 Concentration −6.0) was 92%, the “Percent Growth” value ([2]; Log10 Concentration −7.0) was 94% and the “Percent Growth” value ([2]; Log10 Concentration −8.0) was 97%. The GI50 ([2]; NCI five dose) was 5.15 µM, the TGI ([2]; NCI five dose) was 1.89E−5 and the “Percent Growth” value ([3]; Log10 Concentration −4.0) was −70%. The “Percent Growth” value ([3]; Log10 Concentration −5.0) was 33%, the “Percent Growth” value ([3]; Log10 Concentration −6.0) was 94% and the “Percent Growth” value ([3]; Log10 Concentration −7.0) was 101%. For the same molecule, the “Percent Growth” value ([3]; Log10 Concentration −8.0) was 95%, the GI50 ([3]; NCI five dose) was 5.24 µM and the TGI ([3]; NCI five dose) was 2.09E−5. For the same molecule, the “Percent Growth” value ([4]; Log10 Concentration −4.0) was −59%, the “Percent Growth” value ([4]; Log10 Concentration −5.0) was −12% and the “Percent Growth” value ([4]; Log10 Concentration −6.0) was 112%. The “Percent Growth” value ([4]; Log10 Concentration −7.0) was 111%, the “Percent Growth” value ([4]; Log10 Concentration −8.0) was 110% and the GI50 ([4]; NCI five dose) was 3.16 µM. For the same molecule, the TGI ([4]; NCI five dose) was 7.96E−6, the CC50 ([4]; read-out: LC50, NCI five dose) was 63.1 µM and the “Percent Growth” value ([5]; Log10 Concentration −4.0) was −92%. The “Percent Growth” value ([5]; Log10 Concentration −5.0) was 29%, the “Percent Growth” value ([5]; Log10 Concentration −6.0) was 67% and the “Percent Growth” value ([5]; Log10 Concentration −7.0) was 54%. The “Percent Growth” value ([5]; Log10 Concentration −8.0) was 58%, the GI50 ([5]; NCI five dose) was 2.77 µM and the TGI ([5]; NCI five dose) was 1.73E−5. The “Percent Growth” value ([6]; Log10 Concentration −4.0) was −69%, the “Percent Growth” value ([6]; Log10 Concentration −5.0) was −33% and the “Percent Growth” value ([6]; Log10 Concentration −6.0) was 52%. The “Percent Growth” value ([6]; Log10 Concentration −7.0) was 92%, the “Percent Growth” value ([6]; Log10 Concentration −8.0) was 88% and the GI50 ([6]; NCI five dose) was 1.06 µM. The TGI ([6]; NCI five dose) was 4.06E−6, the CC50 ([6]; read-out: LC50, NCI five dose) was 29.8 µM and the “Percent Growth” value ([7]; Log10 Concentration −4.0) was −72%. The “Percent Growth” value ([7]; Log10 Concentration −5.0) was 66%, the “Percent Growth” value ([7]; Log10 Concentration −6.0) was 94% and the “Percent Growth” value ([7]; Log10 Concentration −7.0) was 93%. For the same molecule, the “Percent Growth” value ([7]; Log10 Concentration −8.0) was 94%, the GI50 ([7]; NCI five dose) was 13 µM and the TGI ([7]; NCI five dose) was 3.00E−5. For the same molecule, the “Percent Growth” value ([8]; Log10 Concentration −4.0) was −90%, the “Percent Growth” value ([8]; Log10 Concentration −5.0) was −20% and the “Percent Growth” value ([8]; Log10 Concentration −6.0) was 92%. The “Percent Growth” value ([8]; Log10 Concentration −7.0) was 97%, the “Percent Growth” value ([8]; Log10 Concentration −8.0) was 93% and the GI50 ([8]; NCI five dose) was 2.35 µM. For the same molecule, the TGI ([8]; NCI five dose) was 6.58E−6, the CC50 ([8]; read-out: LC50, NCI five dose) was 26.5 µM and the “Percent Growth” value ([9]; Log10 Concentration −4.0) was −52%. The “Percent Growth” value ([9]; Log10 Concentration −5.0) was 19%, the “Percent Growth” value ([9]; Log10 Concentration −6.0) was 104% and the “Percent Growth” value ([9]; Log10 Concentration −7.0) was 118%. The “Percent Growth” value ([9]; Log10 Concentration −8.0) was 109%, the GI50 ([9]; NCI five dose) was 4.32 µM and the TGI ([9]; NCI five dose) was 1.85E−5. The “Percent Growth” value ([10]; Log10 Concentration −4.0) was −52%, the “Percent Growth” value ([10]; Log10 Concentration −5.0) was 64% and the “Percent Growth” value ([10]; Log10 Concentration −6.0) was 99%. The “Percent Growth” value ([10]; Log10 Concentration −7.0) was 104%, the “Percent Growth” value ([10]; Log10 Concentration −8.0) was 95% and the GI50 ([10]; NCI five dose) was 13.1 µM. The TGI ([10]; NCI five dose) was 3.55E−5, the “Percent Growth” value ([11]; Log10 Concentration −4.0) was −80% and the “Percent Growth” value ([11]; Log10 Concentration −5.0) was 73%. The “Percent Growth” value ([11]; Log10 Concentration −6.0) was 95%, the “Percent Growth” value ([11]; Log10 Concentration −7.0) was 96% and the “Percent Growth” value ([11]; Log10 Concentration −8.0) was 95%. The GI50 ([11]; NCI five dose) was 14 µM, the TGI ([11]; NCI five dose) was 2.98E−5 and the “Percent Growth” value ([12]; Log10 Concentration −4.0) was −93%. For the same molecule, the “Percent Growth” value ([12]; Log10 Concentration −5.0) was 4%, the “Percent Growth” value ([12]; Log10 Concentration −6.0) was 88% and the “Percent Growth” value ([12]; Log10 Concentration −7.0) was 95%. For the same molecule, the “Percent Growth” value ([12]; Log10 Concentration −8.0) was 90%, the GI50 ([12]; NCI five dose) was 2.83 µM and the TGI ([12]; NCI five dose) was 1.11E−5. For the same molecule, the “Percent Growth” value ([13]; Log10 Concentration −4.0) was −87%, the “Percent Growth” value ([13]; Log10 Concentration −5.0) was 62% and the “Percent Growth” value ([13]; Log10 Concentration −6.0) was 98%. For the same molecule, the “Percent Growth” value ([13]; Log10 Concentration −7.0) was 102%, the “Percent Growth” value ([13]; Log10 Concentration −8.0) was 102% and the GI50 ([13]; NCI five dose) was 12.1 µM. The TGI ([13]; NCI five dose) was 2.61E−5, the “Percent Growth” value ([14]; Log10 Concentration −4.0) was −79% and the “Percent Growth” value ([14]; Log10 Concentration −5.0) was 4%. The “Percent Growth” value ([14]; Log10 Concentration −6.0) was 95%, the “Percent Growth” value ([14]; Log10 Concentration −7.0) was 100% and the “Percent Growth” value ([14]; Log10 Concentration −8.0) was 89%. For the same molecule, the GI50 ([14]; NCI five dose) was 3.1 µM, the TGI ([14]; NCI five dose) was 1.11E−5 and the “Percent Growth” value ([15]; Log10 Concentration −4.0) was −49%. For the same molecule, the “Percent Growth” value ([15]; Log10 Concentration −5.0) was −9%, the “Percent Growth” value ([15]; Log10 Concentration −6.0) was 115% and the “Percent Growth” value ([15]; Log10 Concentration −7.0) was 119%. For the same molecule, the “Percent Growth” value ([15]; Log10 Concentration −8.0) was 110%, the GI50 ([15]; NCI five dose) was 3.33 µM and the TGI ([15]; NCI five dose) was 8.45E−6. For the same molecule, the “Percent Growth” value ([16]; Log10 Concentration −4.0) was −88%, the “Percent Growth” value ([16]; Log10 Concentration −5.0) was −11% and the “Percent Growth” value ([16]; Log10 Concentration −6.0) was 104%. The “Percent Growth” value ([16]; Log10 Concentration −7.0) was 107%, the “Percent Growth” value ([16]; Log10 Concentration −8.0) was 94% and the GI50 ([16]; NCI five dose) was 2.94 µM. For the same molecule, the TGI ([16]; NCI five dose) was 8.03E−6, the “Percent Growth” value ([17]; Log10 Concentration −4.0) was −88% and the “Percent Growth” value ([17]; Log10 Concentration −5.0) was −54%. For the same molecule, the “Percent Growth” value ([17]; Log10 Concentration −6.0) was 91%, the “Percent Growth” value ([17]; Log10 Concentration −7.0) was 101% and the “Percent Growth” value ([17]; Log10 Concentration −8.0) was 105%. For the same molecule, the GI50 ([17]; NCI five dose) was 1.91 µM, the TGI ([17]; NCI five dose) was 4.24E−6 and the “Percent Growth” value ([18]; Log10 Concentration −4.0) was −91%. The “Percent Growth” value ([18]; Log10 Concentration −5.0) was 3%, the “Percent Growth” value ([18]; Log10 Concentration −6.0) was 71% and the “Percent Growth” value ([18]; Log10 Concentration −7.0) was 83%. For the same molecule, the “Percent Growth” value ([18]; Log10 Concentration −8.0) was 87%, the GI50 ([18]; NCI five dose) was 2.05 µM and the TGI ([18]; NCI five dose) was 1.07E−5. The “Percent Growth” value ([19]; Log10 Concentration −4.0) was −89%, the “Percent Growth” value ([19]; Log10 Concentration −5.0) was 26% and the “Percent Growth” value ([19]; Log10 Concentration −6.0) was 95%. For the same molecule, the “Percent Growth” value ([19]; Log10 Concentration −7.0) was 106%, the “Percent Growth” value ([19]; Log10 Concentration −8.0) was 107% and the GI50 ([19]; NCI five dose) was 4.44 µM. For the same molecule, the TGI ([19]; NCI five dose) was 1.68E−5.
